Laboratory results published in US20200108070A2, “INHIBITORS OF FIBROBLAST GROWTH FACTOR RECEPTOR AND USE THEREOF” (Nanjing TransThera Biosciences Co. Ltd., priority 2016, published 2020).

Tests used:
[1] = biological target: FGFR1 (Homo sapiens, UniProt P11362); experiment: Enzymatic activity test (LabChip EZ Reader II / Caliper), FGFR1; type: biochemical; conditions: FGFR1(h), FAM-labelled polypeptide substrate and ATP, 30 min incubation; read-out: Inhibitory activity against FGFR (IC50) FGFR1
FGFR1, sequence (P11362 22-822): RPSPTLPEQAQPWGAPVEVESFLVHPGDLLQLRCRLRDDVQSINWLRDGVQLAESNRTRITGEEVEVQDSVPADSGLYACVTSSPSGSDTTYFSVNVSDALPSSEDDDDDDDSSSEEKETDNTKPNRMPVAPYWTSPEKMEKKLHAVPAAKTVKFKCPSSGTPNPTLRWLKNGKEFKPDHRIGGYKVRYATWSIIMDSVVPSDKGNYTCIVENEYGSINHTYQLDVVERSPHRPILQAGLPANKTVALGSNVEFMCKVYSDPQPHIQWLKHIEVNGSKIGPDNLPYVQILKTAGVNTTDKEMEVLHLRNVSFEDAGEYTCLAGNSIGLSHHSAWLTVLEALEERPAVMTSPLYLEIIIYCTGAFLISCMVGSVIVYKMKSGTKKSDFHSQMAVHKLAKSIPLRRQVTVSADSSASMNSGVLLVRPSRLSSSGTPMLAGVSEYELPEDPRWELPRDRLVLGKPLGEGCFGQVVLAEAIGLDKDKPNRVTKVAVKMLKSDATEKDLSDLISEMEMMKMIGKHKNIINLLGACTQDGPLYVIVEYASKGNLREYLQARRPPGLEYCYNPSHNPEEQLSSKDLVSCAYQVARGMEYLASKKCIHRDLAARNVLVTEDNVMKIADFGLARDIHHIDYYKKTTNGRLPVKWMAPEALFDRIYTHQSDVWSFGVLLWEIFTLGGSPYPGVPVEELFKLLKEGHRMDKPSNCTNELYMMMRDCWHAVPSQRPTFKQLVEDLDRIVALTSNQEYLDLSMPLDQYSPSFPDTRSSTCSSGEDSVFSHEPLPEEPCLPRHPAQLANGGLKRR
Method: (§1) Experimental Example 1: Enzymatic Activity Test of the Compounds of the Present Invention
(§2) Test substance: The compounds of the present invention, the structures of which are shown above.
(§3) Test Instrument: The LabChip EZ Reader II drug screening platform.
(§4) 1. Preparation for compound plate a) 96-well plates, 10 dose groups, 3-fold serial dilutions, added DMSO to each well, maximal concentration of 500 μM. b) 384-well plates, diluted with 1× kinase buffer (50 mM HEPES, pH 7.5; 0.0015% Brij-35; 2 mM DTT), each well containing 5× compound dissolved in 5 μL of 10% DMSO. The negative control well was 5 μL of 1× kinase buffer containing 10% DMSO. 2. Experimental procedure
(§5) […] in 1× kinase buffer were reacted with 2.5× enzyme solution at room temperature for 10 min, and then the FAM-labelled polypeptide substrate and ATP were added to initiate reaction. After incubation for 30 min, 25 μL of terminal solution (100 mM HEPES, pH 7.5; 0.015% Brij-35; 0.2% Coating Reagent #3; 50 mM EDTA) was added to terminate the reaction, and the final data were read by Caliper.

[2] = biological target: FGFR2 (Homo sapiens, UniProt P21802); experiment: Enzymatic activity test (LabChip EZ Reader II / Caliper), FGFR2; type: biochemical; conditions: FGFR2(h), FAM-labelled polypeptide substrate and ATP, 30 min incubation; read-out: Inhibitory activity against FGFR (IC50) FGFR2
FGFR2, sequence (P21802 22-821): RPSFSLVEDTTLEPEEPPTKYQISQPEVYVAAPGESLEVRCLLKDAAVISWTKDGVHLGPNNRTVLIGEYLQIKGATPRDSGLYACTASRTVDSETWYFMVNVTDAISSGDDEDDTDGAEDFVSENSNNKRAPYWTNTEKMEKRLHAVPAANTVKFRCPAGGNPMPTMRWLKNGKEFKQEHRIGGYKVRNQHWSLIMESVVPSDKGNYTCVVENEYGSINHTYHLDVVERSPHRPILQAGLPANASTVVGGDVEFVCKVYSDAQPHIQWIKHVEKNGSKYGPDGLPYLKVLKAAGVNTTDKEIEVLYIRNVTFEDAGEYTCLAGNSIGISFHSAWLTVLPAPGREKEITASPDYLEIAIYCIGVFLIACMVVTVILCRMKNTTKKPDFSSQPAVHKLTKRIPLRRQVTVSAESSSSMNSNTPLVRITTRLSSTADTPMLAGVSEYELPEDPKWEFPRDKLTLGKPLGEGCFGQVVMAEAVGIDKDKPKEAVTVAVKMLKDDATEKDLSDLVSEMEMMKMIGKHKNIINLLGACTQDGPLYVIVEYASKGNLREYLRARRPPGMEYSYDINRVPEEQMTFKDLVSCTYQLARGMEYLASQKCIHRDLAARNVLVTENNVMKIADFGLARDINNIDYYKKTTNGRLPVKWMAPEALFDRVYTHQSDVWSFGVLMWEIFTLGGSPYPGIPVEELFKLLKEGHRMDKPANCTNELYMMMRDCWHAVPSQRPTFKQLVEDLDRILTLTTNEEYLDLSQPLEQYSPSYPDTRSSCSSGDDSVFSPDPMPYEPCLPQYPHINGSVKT
Method: as §1, §2, §3, §4, §5

[3] = biological target: FGFR3 (Homo sapiens, UniProt P22607); experiment: Enzymatic activity test (LabChip EZ Reader II / Caliper), FGFR3; type: biochemical; conditions: FGFR3(h), FAM-labelled polypeptide substrate and ATP, 30 min incubation; read-out: Inhibitory activity against FGFR (IC50) FGFR3
FGFR3, sequence (P22607 23-806): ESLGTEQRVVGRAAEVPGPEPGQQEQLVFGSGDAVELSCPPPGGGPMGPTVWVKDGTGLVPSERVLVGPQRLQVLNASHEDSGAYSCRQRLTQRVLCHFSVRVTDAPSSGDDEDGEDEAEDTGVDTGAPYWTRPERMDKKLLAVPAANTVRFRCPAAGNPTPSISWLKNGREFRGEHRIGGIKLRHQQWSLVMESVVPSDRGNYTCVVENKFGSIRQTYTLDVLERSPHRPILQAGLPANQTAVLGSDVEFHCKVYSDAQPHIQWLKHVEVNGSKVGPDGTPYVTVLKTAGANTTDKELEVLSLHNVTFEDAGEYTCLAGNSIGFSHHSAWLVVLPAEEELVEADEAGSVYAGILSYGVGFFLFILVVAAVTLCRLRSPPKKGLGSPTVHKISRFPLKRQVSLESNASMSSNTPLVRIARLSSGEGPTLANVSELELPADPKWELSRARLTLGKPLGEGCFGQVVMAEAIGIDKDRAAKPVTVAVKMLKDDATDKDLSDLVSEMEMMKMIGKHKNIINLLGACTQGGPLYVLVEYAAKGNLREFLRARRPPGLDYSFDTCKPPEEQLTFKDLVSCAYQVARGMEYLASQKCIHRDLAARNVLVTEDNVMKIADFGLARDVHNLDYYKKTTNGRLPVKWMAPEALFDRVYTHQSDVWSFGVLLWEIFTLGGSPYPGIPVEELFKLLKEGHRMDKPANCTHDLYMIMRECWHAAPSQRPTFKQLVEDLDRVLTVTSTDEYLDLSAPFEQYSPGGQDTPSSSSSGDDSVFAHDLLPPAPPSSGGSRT
Method: as §1, §2, §3, §4, §5

[4] = biological target: FGFR4 (Homo sapiens, UniProt P22455); experiment: Enzymatic activity test (LabChip EZ Reader II / Caliper), FGFR4; type: biochemical; conditions: FGFR4(h), FAM-labelled polypeptide substrate and ATP, 30 min incubation; read-out: Inhibitory activity against FGFR (IC50) FGFR4
FGFR4, sequence (P22455 22-802): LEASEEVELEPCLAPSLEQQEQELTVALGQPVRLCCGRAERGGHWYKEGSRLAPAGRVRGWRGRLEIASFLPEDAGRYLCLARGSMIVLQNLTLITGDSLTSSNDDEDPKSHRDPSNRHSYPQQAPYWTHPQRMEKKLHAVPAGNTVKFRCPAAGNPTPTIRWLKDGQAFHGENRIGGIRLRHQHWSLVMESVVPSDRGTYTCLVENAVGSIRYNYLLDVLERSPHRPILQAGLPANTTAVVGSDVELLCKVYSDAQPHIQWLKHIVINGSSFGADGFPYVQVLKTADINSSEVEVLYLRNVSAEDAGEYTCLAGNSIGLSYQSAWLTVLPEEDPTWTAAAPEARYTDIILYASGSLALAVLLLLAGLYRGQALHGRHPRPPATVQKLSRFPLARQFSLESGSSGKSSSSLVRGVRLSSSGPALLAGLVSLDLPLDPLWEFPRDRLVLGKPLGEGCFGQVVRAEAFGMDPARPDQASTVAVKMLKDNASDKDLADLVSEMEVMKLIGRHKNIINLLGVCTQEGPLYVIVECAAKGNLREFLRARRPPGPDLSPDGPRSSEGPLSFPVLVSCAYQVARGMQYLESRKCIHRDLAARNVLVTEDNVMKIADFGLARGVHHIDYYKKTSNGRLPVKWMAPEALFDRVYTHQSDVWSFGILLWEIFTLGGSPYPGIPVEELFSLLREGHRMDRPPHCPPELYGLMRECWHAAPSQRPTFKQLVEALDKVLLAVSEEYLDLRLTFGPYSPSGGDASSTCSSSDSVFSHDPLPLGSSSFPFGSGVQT
Method: as §1, §2, §3, §4, §5

[5] = system: Hep3B; experiment: Cellular activity test (Cell titer-Glo), Hep3B; type: cell-based; conditions: Homo sapiens, hepatocellular carcinoma cell with abnormal FGFR, 72 h, read-out: Inhibitory activity against cells (IC50) Hep3B
Source text: (§6) Experimental Example 2: Celluar Activity Test of the Compounds of the Present Invention
(§7) Hep3B is a cell with abnormal FGFR in hepatocellular carcinoma RT112/84 is a cell with abnormal FGFR in bladder cancer DMS114 is a cell with abnormal FGFR in small cell lung cancer AN3CA is a cell with abnormal FGFR in endometrial cancer SNU-16 is a cell with abnormal FGFR in gastric cancer
as §2
(§8) Test instrument: The Espire multi-function microplate reader.
(§9) Each cell line was seeded into a 96-well plate, and adherent cultured overnight. Then, the compounds at different concentrations (12 dose groups, 3× DMSO serial dilutions) were added to a final concentration of 0.17-30000 nM, with the final content of DMSO of 5‰. The negative control well was medium containing 5‰ DMSO. After incubation at 37° C., 5% CO2, 95% humidity for 72 h, the cultures would be test. 30 μL of Cell titer-Glo reagent was added to each well and incubated for 30 min at room temperature. The final data were read by Espire microplate reader.

[6] = system: RT112/84; experiment: Cellular activity test (Cell titer-Glo), RT112/84; type: cell-based; conditions: Homo sapiens, RT112/84, bladder cancer cell with abnormal FGFR, 72 h, read-out: Inhibitory activity against cells (IC50) RT112/84
Source text: as §6, §7, §2, §8, §9

[7] = system: DMS114; experiment: Cellular activity test (Cell titer-Glo), DMS114; type: cell-based; conditions: Homo sapiens, DMS-114, DMS114, small cell lung cancer cell with abnormal FGFR, 72 h, read-out: Inhibitory activity against cells (IC50) DMS114
Source text: as §6, §7, §2, §8, §9

[8] = system: AN3CA; experiment: Cellular activity test (Cell titer-Glo), AN3CA; type: cell-based; conditions: Homo sapiens, AN3-CA, endometrial cancer cell with abnormal FGFR, 72 h, read-out: Inhibitory activity against cells (IC50) AN3CA
Source text: as §6, §7, §2, §8, §9

Row | SMILES | IC50 [1] [µM] | IC50 [2] [µM] | IC50 [3] [µM] | IC50 [4] [µM] | IC50 [5] [µM] | IC50 [6] [µM] | IC50 [7] [µM] | IC50 [8] [µM]
1 | C=CC(=O)N1C[C@@H](Nc2ncc3cc(-c4c(Cl)c(OC)cc(OC)c4Cl)ccc3n2)C[C@H]1C(=O)OCC [Compound 36, ethyl(2S,4S)-1-acryloyl-4-((6-(2,6-dichloro-3,5-dimethoxyphenyl)quinazolin-2-yl)amino)pyrrolidin-2-carboxylate] | – | – | – | – | 0.0707 | – | – | –
2 | C=CC(=O)N1CCC(Nc2ncc3cc(-c4c(Cl)c(OC)cc(OC)c4Cl)ccc3n2)CC1 [Compound 10, 1-(4-((6-(2,6-dichloro-3,5-dimethoxyphenyl)quinazolin-2-yl)amino)piperidin-1-yl)prop-2-en-1-one] | < 0.003 | – | 0.007 | 0.177 | – | – | – | –
3 | C=CC(=O)N1C[C@@H](Nc2ncc3cc(-c4c(Cl)c(OC)cc(OC)c4Cl)ccc3n2)C[C@H]1COC [Compound 53, 1-((2S,4S)-4-((6-(2,6-dichloro-3,5-dimethoxyphenyl)quinazolin-2-yl)amino)-2-(methoxymethyl)pyrrolidin-1-yl)prop-2-en-1-one] | – | – | – | – | – | 0.097 | 0.082 | –
4 | C=CC(=O)N1C[C@@H](Nc2ncc3cc(-c4c(Cl)c(OC)cc(OC)c4Cl)ccc3n2)C[C@H]1CC#N [Compound 27, 2-((2S,4S)-1-acryloyl-4-((6-(2,6-dichloro-3,5-dimethoxyphenyl)quinazolin-2-yl)amino)pyrrolidin-2-yl)acetonitrile] | 0.018 | – | – | 0.261 | 0.082 | 0.127 | 0.072 | –
5 | C=CC(=O)N1CCCC(Nc2ncc3cc(-c4c(Cl)c(OC)cc(OC)c4Cl)ccc3n2)C1 (stereo not shown) [Compound 1] | – | – | – | 0.153 | – | – | – | –
6 | C=CC(=O)N1C[C@@H]2C[C@H]1[C@@H]2Nc1ncc2cc(-c3c(Cl)c(OC)cc(OC)c3Cl)ccc2n1 (relative stereo) [Compound 11, 1-(trans-5-((6-(2,6-dichloro-3,5-dimethoxyphenyl)quinazolin-2-yl)amino)-2-azabicyclo[2.1.1]hexane-2-yl)prop-2-en-1-one] | 0.021 | – | – | 0.198 | – | – | – | –
7 | C=CC(=O)N1C[C@@H](Nc2ncc3cc(-c4c(Cl)c(OC)cc(OC)c4Cl)ccc3n2)C[C@H]1CNS(C)(=O)=O [Compound 33, N-(((2S,4S)-1-acryloyl-4-((6-(2,6-dichloro-3,5-dimethoxyphenyl)quinazolin-2-yl)amino)pyrrolidin-2-yl)methyl)methanesulfonamide] | – | – | – | – | 0.0754 | 0.065 | 0.034 | 0.149
8 | C=CC(=O)N1C[C@@H](Nc2ncc3cc(-c4c(Cl)c(OC)cc(OC)c4Cl)ccc3n2)C[C@H]1CNC(C)=O [Compound 32, N-(((2S,4S)-1-acryloyl-4-((6-(2,6-dichloro-3,5-dimethoxyphenyl)quinazolin-2-yl)amino)pyrrolidin-2-yl)methyl)acetamide] | – | – | – | – | 0.147 | 0.078 | 0.048 | 0.167
9 | C=CC(=O)N1C[C@@H](Nc2ncc3cc(-c4c(Cl)c(OC)cc(OC)c4Cl)ccc3n2)C[C@H]1C(=O)N1CCCC1 [Compound 55, 1-((2S,4S)-4-((6-(2,6-dichloro-3,5-dimethoxyphenyl)quinazolin-2-yl)amino)-2-(pyrrolidin-1-carbonyl)pyrrolidin-1-yl)prop-2-en-1-one] | – | – | – | – | – | 0.054 | 0.021 | 0.066
10 | C=CC(=O)N1C[C@@H](Nc2ncc3cc(-c4c(Cl)c(OC)cc(OC)c4Cl)ccc3n2)C[C@H]1C(=O)N1CCC1 [Compound 35, 1-((2S,4S)-2-(azetidine-1-carbonyl)-4-((6-(2,6-dichloro-3,5-dimethoxyphenyl)quinazolin-2-yl)amino)pyrrolidin-1-yl)prop-2-en-1-one] | – | – | – | – | 0.095 | 0.06 | 0.052 | 0.112
11 | C=CC(=O)N1CC(Nc2ncc3cc(-c4c(Cl)c(OC)cc(OC)c4Cl)ccc3n2)C1 [Compound 9] | < 0.003 | – | 0.008 | 0.301 | – | – | – | –
12 | C=CC(=O)N1C[C@@H](Nc2ncc3cc(-c4c(Cl)c(OC)cc(OC)c4Cl)ccc3n2)C[C@H]1C(=O)N(C)C [Compound 30, (2S,4S)-1-acryloyl-4-((6-(2,6-dichloro-3,5-dimethoxyphenyl)quinazolin-2-yl)amino)-N,N-dimethylpyrrolidin-2-carboxamide] | 0.009 | – | – | 0.657 | 0.0775 | 0.117 | – | –
13 | C=CC(=O)N1CC[C@@H](Nc2ncc3cc(-c4c(Cl)c(OC)cc(OC)c4Cl)ccc3n2)C1 [Compound 6, (R)-1-(3-((6-(2,6-dichloro-3,5-dimethoxyphenyl)quinazolin-2-yl)amino)pyrrolidin-1-yl)prop-2-en-1-one] | < 0.003 | – | 0.018 | 0.78 | – | – | – | –
14 | C=CC(=O)N1C[C@@H](Nc2ncc3cc(-c4c(Cl)c(OC)cc(OC)c4Cl)ccc3n2)C[C@H]1C [Compound 21, 1-((2R,4S)-4-((6-(2,6-dichloro-3,5-dimethoxyphenyl)quinazolin-2-yl)amino)-2-methylpyrrolidin-1-yl)propyl-2-en-1-one] | 0.008 | – | – | 0.33 | – | 0.054 | – | 0.176

Second part, led by results:

Row | IC50 [1] [µM] | IC50 [2] [µM] | IC50 [3] [µM] | IC50 [4] [µM] | SMILES | IC50 [5] [µM] | IC50 [6] [µM] | IC50 [7] [µM] | IC50 [8] [µM]
15 | 0.0058 | 0.0082 | 0.022 | – | C=CC(=O)N1C[C@H](O)[C@H](Nc2ncc3cc(-c4c(Cl)c(OC)cc(OC)c4Cl)ccc3n2)C1 [Compound 46] | – | – | – | –
16 | < 0.003 | – | – | 0.196 | CC#CC(=O)N1CCC(Nc2ncc3cc(-c4c(Cl)c(OC)cc(OC)c4Cl)ccc3n2)CC1 [Compound 63] | – | – | – | –
17 | 0.017 | 0.025 | 0.075 | – | C=CC(=O)N1C[C@@H](CC)[C@H](Nc2ncc3cc(-c4c(Cl)c(OC)cc(OC)c4Cl)ccc3n2)C1 [Compound 48] | – | – | – | –
18 | 0.0089 | – | – | 0.317 | C=CC(=O)N1C[C@@H](Nc2ncc3cc(-c4c(Cl)c(OC)cc(OC)c4Cl)ccc3n2)C[C@H]1C(=O)NC [Compound 37] | – | – | – | –
19 | 0.0037 | – | – | 0.103 | C=CC(=O)N1C[C@@H](Nc2ncc3cc(-c4c(Cl)c(OC)cc(OC)c4Cl)ccc3n2)C[C@H]1C(C)(C)O (stereo in doubt) [Compound 31, 1-((2R,4R)-4-((6-(2,6-dichloro-3,5-dimethoxyphenyl)quinazolin-2-yl)amino)-2-(2-hydroxypropyl-2-yl)pyrrolidin-1-yl)prop-2-en-1-one] | 0.046 | 0.07 | 0.025 | 0.117
20 | 0.015 | – | – | 0.318 | C=CC(=O)N1C[C@@H](Nc2ncc3cc(-c4c(Cl)c(OC)cc(OC)c4Cl)ccc3n2)C2(CC2)C1 (stereo in doubt) [Compound 66] | – | – | – | –
21 | < 0.003 | – | – | 0.318 | C=CC(=O)N1C[C@@H](O)[C@H](Nc2ncc3cc(-c4c(Cl)c(OC)cc(OC)c4Cl)ccc3n2)C1 [Compound 39] | – | – | – | –
22 | 0.006 | – | – | 0.268 | C=CC(=O)N1CCC(Nc2ncc3cc(-c4c(Cl)c(OC)cc(OC)c4Cl)ccc3n2)C(C)C1 (stereo not shown) [Compound 61] | – | – | – | –
23 | 0.007 | – | – | – | CC#CC(=O)N1CCC[C@H](Nc2ncc3cc(-c4c(Cl)c(OC)cc(OC)c4Cl)ccc3n2)C1 [Compound 62] | – | – | – | –
24 | 0.007 | – | – | – | C=CC(=O)N1C[C@H](Nc2ncc3cc(-c4c(Cl)c(OC)cc(OC)c4Cl)ccc3n2)[C@@H](C)C1 [Compound 41] | – | – | – | –
25 | 0.008 | 0.056 | – | 0.129 | C=CC(=O)N1CC(Nc2ncc3cc(-c4c(Cl)c(OC)cc(OC)c4Cl)ccc3n2)c2ccccc21 (stereo not shown) [Compound 67] | – | – | – | –
